Measured values as given in patent US20260217767A1, “NOVEL A4B7 THIOETHER PEPTIDE DIMER ANTAGONISTS” (Protagonist Therapeutics, Inc., priority 2014, published 2026).
Where a SMILES comes first, the peptide text is derived from it.

Test system: not listed separately
Assay: Simulated Intestinal Fluid (SIF) Stability Assay
Assay type: in vitro ADME
Details: simulated gi fluid, porcine pancreatin, 37° C.; monomers, Table 6
Experimental: Simulated Intestinal Fluid (SIF) Stability Assay
Studies were carried out in simulated intestinal fluid (SIF) to evaluate intestinal stability of the peptide molecules of the instant invention. To prepare the SIF reagent, blank FASSIF was prepared by dissolving 0.348 g NaOH, 3.954 g sodium phosphate monobasic monohydrate and 6.186 g NaCl in a final volume of 1 liter water (final pH=6.5). To this solution, 24 g porcine pancreatin (Sigma catalog P7545) was added and stirred for 30 minutes (final pancreatin concentration is 2.4%). The solution was filtered through a cheese cloth and a No. 1 Whatman filter, and 10 ml aliquots were stored at −70° C. To run the reaction, a 10 ml aliquot was thawed at 37° C., and 125 μl aliquots were removed and mixed with an equal volume of blank FASSIF. The peptide stock solution (10 mM in 100% DMSO) was diluted 75-fold in blank FASSIF. A 50 μl aliquot of the diluted peptide was combined with 125 μl pancreatin (2.4%) and 125 μl blank FASSIF to yield final concentrations of 1% pancreatin and 22 μM peptide. The reactions were incubated at 37° C., and at various time points 50 μl aliquots were removed and added to 200 μl of quench solution containing 50% acetonitrile, 50% methanol, 5% formic acid, and 1 μg/ml internal standard. The quenched samples were centrifuged at 10,000 rpm for 10 minutes, and the supernatants were analyzed by LCMS/MS. The percent remaining at each time point was calculated based on the peak area response ratio of test to compound to internal standard. Half-lives were calculated by fitting to a first-order exponential decay equation using GraphPad. A small sampling of the results of these studies is provided and discussed herein and in the accompanying figures.

half-life [h]	SMILES
3.1	CC(C)C[C@@H]1NC(=O)[C@H]([C@@H](C)O)NC(=O)[C@H](CC(=O)O)NC(=O)[C@H](CO)NC(=O)[C@H](CCCNC(=N)N)N(C)C(=O)c2ccccc2CSC(C)(C)[C@@H](C(=O)N[C@@H](Cc2c[nH]c3ccccc23)C(=O)N[C@@H](CCC(=O)O)C(=O)N[C@H](CCCCN)C(N)=O)NC1=O [compound 56] (HELM PEPTIDE1{[meR].S.D.T.L.[Pen].W.E.[dK].[am]}|CHEM1{[O=C(c1ccccc1C[*:2])[*:1]]}$PEPTIDE1,CHEM1,1:R1-1:R1|PEPTIDE1,CHEM1,6:R3-1:R2$$$V2.0)
> 3	CC(C)C[C@@H]1NC(=O)[C@H]([C@@H](C)O)NC(=O)[C@H](CC(=O)O)NC(=O)[C@H](CO)NC(=O)[C@H](CCCNC(=N)N)N(C)C(=O)c2ccccc2CSC(C)(C)[C@@H](C(=O)N[C@@H](Cc2c[nH]c3ccccc23)C(=O)N[C@H](CCC(=O)O)C(=O)N[C@H](CCCCN)C(N)=O)NC1=O [compound 60] (HELM PEPTIDE1{[meR].S.D.T.L.[Pen].W.[dE].[dK].[am]}|CHEM1{[O=C(c1ccccc1C[*:2])[*:1]]}$PEPTIDE1,CHEM1,1:R1-1:R1|PEPTIDE1,CHEM1,6:R3-1:R2$$$V2.0)

Target: T1, RPMI 8866 cells (Homo sapiens, UniProt P13612+P26010)
T1 sequence (P13612 34-1032): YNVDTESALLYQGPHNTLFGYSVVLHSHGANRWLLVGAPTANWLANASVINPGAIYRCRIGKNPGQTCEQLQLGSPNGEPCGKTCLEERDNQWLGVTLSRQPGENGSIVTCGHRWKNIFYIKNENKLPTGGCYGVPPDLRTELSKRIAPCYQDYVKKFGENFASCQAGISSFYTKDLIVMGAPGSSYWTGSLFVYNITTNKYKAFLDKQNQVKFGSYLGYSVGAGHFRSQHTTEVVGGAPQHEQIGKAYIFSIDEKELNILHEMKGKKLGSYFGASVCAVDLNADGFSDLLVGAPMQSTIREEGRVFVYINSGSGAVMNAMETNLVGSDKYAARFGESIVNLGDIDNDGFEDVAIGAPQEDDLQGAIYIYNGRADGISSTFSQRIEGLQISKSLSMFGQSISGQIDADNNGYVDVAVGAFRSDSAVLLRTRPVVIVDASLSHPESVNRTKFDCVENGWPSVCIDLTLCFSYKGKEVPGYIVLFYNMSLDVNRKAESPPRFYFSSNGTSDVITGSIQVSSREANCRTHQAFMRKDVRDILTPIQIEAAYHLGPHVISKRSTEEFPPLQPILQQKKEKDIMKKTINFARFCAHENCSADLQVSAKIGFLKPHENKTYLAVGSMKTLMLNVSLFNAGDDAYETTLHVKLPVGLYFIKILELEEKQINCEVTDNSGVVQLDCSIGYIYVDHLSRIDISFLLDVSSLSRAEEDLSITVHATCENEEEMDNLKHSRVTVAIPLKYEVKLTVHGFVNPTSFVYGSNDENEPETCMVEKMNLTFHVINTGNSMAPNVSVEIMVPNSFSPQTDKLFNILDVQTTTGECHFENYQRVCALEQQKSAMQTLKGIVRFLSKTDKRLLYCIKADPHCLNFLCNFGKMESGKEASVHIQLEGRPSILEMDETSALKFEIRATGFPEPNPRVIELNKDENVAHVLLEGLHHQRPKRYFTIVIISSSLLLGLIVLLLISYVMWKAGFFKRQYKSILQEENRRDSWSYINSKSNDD
T1 sequence (P26010 20-798): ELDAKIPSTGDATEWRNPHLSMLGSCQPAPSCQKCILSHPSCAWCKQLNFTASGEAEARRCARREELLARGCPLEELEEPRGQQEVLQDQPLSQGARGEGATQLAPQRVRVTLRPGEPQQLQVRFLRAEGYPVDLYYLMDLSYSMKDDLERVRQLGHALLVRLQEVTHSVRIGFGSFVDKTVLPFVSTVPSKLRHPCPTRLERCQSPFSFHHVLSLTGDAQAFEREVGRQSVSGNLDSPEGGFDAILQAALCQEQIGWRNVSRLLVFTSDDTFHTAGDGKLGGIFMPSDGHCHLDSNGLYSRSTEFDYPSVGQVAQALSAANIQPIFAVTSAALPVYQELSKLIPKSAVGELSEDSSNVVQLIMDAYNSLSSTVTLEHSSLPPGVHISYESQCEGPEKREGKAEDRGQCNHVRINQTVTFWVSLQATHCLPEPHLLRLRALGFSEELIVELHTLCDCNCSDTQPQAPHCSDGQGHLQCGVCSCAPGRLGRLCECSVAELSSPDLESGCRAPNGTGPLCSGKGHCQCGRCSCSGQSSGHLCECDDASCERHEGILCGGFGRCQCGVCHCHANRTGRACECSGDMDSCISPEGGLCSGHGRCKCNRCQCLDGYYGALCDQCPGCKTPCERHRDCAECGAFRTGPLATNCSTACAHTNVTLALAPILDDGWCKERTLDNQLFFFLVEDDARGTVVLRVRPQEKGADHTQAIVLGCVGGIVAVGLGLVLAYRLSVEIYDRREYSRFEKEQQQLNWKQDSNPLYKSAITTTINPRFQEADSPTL
Assay: α4β7-MAdCAM Cell Adhesion Assay
Assay type: cell-based
Details: thioether peptide dimers, Table 7; read-out: Cell-Adhesion A4B7
Experimental: α4β7-MAdCAM Cell Adhesion Assay
RPMI 8866 cells (Sigma #95041316) were cultured in RPMI 1640 HEPES medium (Invitrogen #22400-089) supplemented with 10% serum (Fetal Bovine Serum, Invitrogen #16140-071), 1 mM sodium pyruvate (Invitrogen #11360-070), 2 mM L-glutamine (Invitrogen #25030-081) and Penicillin-Streptomycin (Invitrogen #15140-122) at 100 units of penicillin and 100 μg of streptomycin per ml. The cells were washed two times in DMEM medium (ATCC #30-2002) supplemented with 0.1% BSA, 10 mM HEPES pH 7 and 1 mM MnCl2. The cells were re-suspended in supplemented DMEM medium at a density of 4×10^6 cells/ml.
A Nunc MaxiSorp plate was coated with rh MAdCAM-1/Fc Chimera (R&D #6065-MC) at 200 ng per well in 50 ul per well in 1×PBS and incubated at 4° C. overnight. The solution was then removed by shaking, blocked with 250 ul per well PBS containing 1% BSA, and incubated at 37° C. for 1 hr. The solution was removed by shaking. Peptides were diluted by serial dilution in a final volume of 50 ul per well (2× concentration). To each well, 50 ul of cells (200,000 cells) were added and the plate was incubated at 37° C., 5% CO2 for 30-45 min to allow cell adhesion. The wells were washed manually three times (100 ul per wash) with supplemented DMEM. After the final wash, 100 μl/well of supplemented DMEM and 10 ul/well of MTT reagent (ATTC cat #30-1010K) were added. The plate was incubated at 37° C., 5% CO2 for 2-3 hrs until a purple precipitate is visible. 100 ul of Detergent Reagent (ATTC cat #30-1010K) was added to each well. The plate was covered from the light, wrapped in Parafilm to prevent evaporation, and left overnight at room temperature in the dark. The plate was shaken for 5 min and the absorbance at 570 nm is measured. To calculate the dose response, the absorbance value of control wells not containing cells was subtracted from each test well.

SMILES	IC50 [nM]
CC(C)C[C@@H]1NC(=O)[C@H]([C@@H](C)O)NC(=O)[C@H](CC(=O)O)NC(=O)[C@H](CO)NC(=O)[C@H](CCCNC(=N)N)N(C)C(=O)c2ccccc2CSC(C)(C)[C@@H](C(=O)N[C@@H](Cc2c[nH]c3ccccc23)C(=O)N[C@@H](Cc2ccc(-c3ccccc3)cc2)C(=O)N[C@H](CCCCN)C(N)=O)NC1=O [compound 202] (HELM PEPTIDE1{[meR].S.D.T.L.[Pen].W.[O=C([C@H](Cc1ccc(-c2ccccc2)cc1)N[*:1])[*:2]].[dK].[am]}|CHEM1{[O=C(c1ccccc1C[*:2])[*:1]]}$PEPTIDE1,CHEM1,1:R1-1:R1|PEPTIDE1,CHEM1,6:R3-1:R2$$$V2.0)	100 to 1000
CC(C)C[C@@H]1NC(=O)[C@H]([C@@H](C)O)NC(=O)[C@H](CC(=O)O)NC(=O)[C@H](CO)NC(=O)[C@H](CCCNC(=N)N)N(C)C(=O)c2ccccc2CSC(C)(C)[C@@H](C(=O)N[C@@H](Cc2ccccc2)C(=O)N[C@@H](Cc2ccc(-c3ccccc3)cc2)C(=O)N[C@H](CCCCN)C(N)=O)NC1=O [compound 203] (HELM PEPTIDE1{[meR].S.D.T.L.[Pen].F.[O=C([C@H](Cc1ccc(-c2ccccc2)cc1)N[*:1])[*:2]].[dK].[am]}|CHEM1{[O=C(c1ccccc1C[*:2])[*:1]]}$PEPTIDE1,CHEM1,1:R1-1:R1|PEPTIDE1,CHEM1,6:R3-1:R2$$$V2.0)	100 to 1000
CC(C)C[C@@H]1NC(=O)[C@H]([C@@H](C)O)NC(=O)[C@H](CC(=O)O)NC(=O)[C@H](CO)NC(=O)[C@H](CCCNC(=N)N)N(C)C(=O)c2ccccc2CSC[C@@H](C(=O)N2Cc3ccccc3C[C@H]2C(=O)N[C@@H](Cc2ccc(-c3ccccc3)cc2)C(=O)N[C@H](CCCCN)C(N)=O)NC1=O [compound 205] (HELM PEPTIDE1{[meR].S.D.T.L.C.[Tic].[O=C([C@H](Cc1ccc(-c2ccccc2)cc1)N[*:1])[*:2]].[dK].[am]}|CHEM1{[O=C(c1ccccc1C[*:2])[*:1]]}$PEPTIDE1,CHEM1,1:R1-1:R1|PEPTIDE1,CHEM1,6:R3-1:R2$$$V2.0)	100 to 1000
CC(C)C[C@@H]1NC(=O)[C@H]([C@@H](C)O)NC(=O)[C@H](CC(=O)O)NC(=O)[C@H](CO)NC(=O)[C@H](CCCNC(=N)N)N(C)C(=O)c2ccccc2CSC(C)(C)[C@@H](C(=O)N[C@@H](Cc2ccc3ccccc3c2)C(=O)N[C@@H](Cc2ccc(-c3ccccc3)cc2)C(=O)N[C@H](CCCCN)C(N)=O)NC1=O [compound 206]	> 1000
COC(=O)CC[C@H](NC(=O)[C@H](Cc1c[nH]c2ccccc12)NC(=O)[C@H]1NC(=O)[C@H](CC(C)C)NC(=O)[C@H]([C@@H](C)O)NC(=O)[C@H](CC(=O)O)NC(=O)[C@H](CO)NC(=O)[C@H](CCCNC(=N)N)N(C)C(=O)c2ccccc2CSC1(C)C)C(=O)N[C@H](CCCCN)C(N)=O [compound 210] (HELM PEPTIDE1{[meR].S.D.T.L.[Pen].W.E.[dK].[am]}|CHEM1{[CO[*:1]]}|CHEM2{[O=C(c1ccccc1C[*:2])[*:1]]}$PEPTIDE1,CHEM1,8:R3-1:R1|PEPTIDE1,CHEM2,1:R1-1:R1|PEPTIDE1,CHEM2,6:R3-1:R2$$$V2.0)	100 to 1000
CC(C)C[C@@H]1NC(=O)[C@H]([C@@H](C)O)NC(=O)[C@H](CC(=O)O)NC(=O)[C@H](CO)NC(=O)[C@H](CCCNC(=N)N)N(C)C(=O)c2ccccc2CSC(C)(C)[C@@H](C(=O)N[C@@H](Cc2c[nH]c3ccccc23)C(=O)N[C@H](CCC(=O)O)C(=O)N[C@H](CCCCN)C(N)=O)NC1=O [compound 212] (HELM PEPTIDE1{[meR].S.D.T.L.[Pen].W.[dE].[dK].[am]}|CHEM1{[O=C(c1ccccc1C[*:2])[*:1]]}$PEPTIDE1,CHEM1,1:R1-1:R1|PEPTIDE1,CHEM1,6:R3-1:R2$$$V2.0)	25 to 100
